Entries after “also recorded” stand apart in the source; their conditions may differ.
Key:
57BL/6 and Plaur−/− mice = test: right kidney cross-transplantation with LPS treatment (TEM and uPAR immunostaining); assay type: in vivo, mouse; conditions: for foot process effacement (TEM): LPS 10 mg/kg i.p., 24 h
Procedure: Right kidney cross-transplantation: Six 57BL/6 female mice and 6 Plaur^−/− female mice in the same age and body weight ranges (7-8 weeks, 15-18 g) were randomly recruited into this study. The right kidney from Plaur^−/− mice were transplanted into 57BL/6 mice at the right side and vice versa. Kidney transplantation was performed as previously described (Coffman, T. et al, J. Immunol. 151, 425-435 (1993); Han, W. R., Murray-Segal, L. J. and Mottram, P. L. Microsurgery. 19, 272-274 (1999)). After recovery from surgery, mice were randomly treated with LPS at 10 mg/kg body weight, i.p. or same amount of PBS for control. 24 h after LPS injection, mice were sacrificed, and kidney was taken out for further analysis.
Transmission electron microscopy (TEM): TEM was performed according to the standard protocols (Sever, S. et al. J. Clin. Invest. 117, 2095-2104 (2007)).
To further confirm the role of suPAR in proteinuria development and kidney disease, cross-kidney transplantation was performed and the effect of endogenous soluble form of uPAR was examined. The right kidney was excised from normal 57BL/6, and transplanted into Plaur^−/− mice on the right side and vice versa (FIG. 3A). Mice were randomly chosen to receive lipopolysaccharide (LPS) to induce proteinuria or PBS for control after recovery from surgery. […] For the PBS treated 57BL/6 mice however, foot process effacement was not remarkable in either transplanted Plaur^−/− kidney or native 57BL/6 kidney (FIG. 1E). […] In contrast, foot process effacement was not remarkable in either native Plaur^−/− kidney or in the transplanted 57BL/6 kidney of PBS controlled mice (FIG. 1F). […] In order to determine whether suPAR is responsible for the phenomena, the sections were immunostained from both native and transplanted kidney with uPAR antibody.

αvβ3 integrin = conditions: in vivo; cited from earlier work

Row | Compound | foot process effacement (TEM) (57BL/6 and Plaur−/− mice; 57BL/6 mice, native 57BL/6 kidney) | foot process effacement (TEM) (57BL/6 and Plaur−/− mice; 57BL/6 mice, transplanted Plaur−/− kidney) | podocyte uPAR expression (immunostaining) (57BL/6 and Plaur−/− mice; LPS treated 57BL/6 mice, native 57BL/6 kidney) | podocyte uPAR expression or deposit (immunostaining) (57BL/6 and Plaur−/− mice; LPS treated 57BL/6 mice, transplanted Plaur−/− kidney) | uPAR in podocytes (immunostaining) (57BL/6 and Plaur−/− mice; LPS treated Plaur−/− mice, native Plaur−/− kidney) | uPAR expression (immunostaining) (57BL/6 and Plaur−/− mice; LPS treated Plaur−/− mice, transplanted 57BL/6 kidney) | foot process effacement (TEM) (57BL/6 and Plaur−/− mice; Plaur−/− mice, native Plaur−/− kidney) | foot process effacement (TEM) (57BL/6 and Plaur−/− mice; Plaur−/− mice, transplanted 57BL/6 kidney) | proteinuria caused by uPAR-β3-integrin signaling (αvβ3 integrin)
1 | lipopolysaccharide [LPS] | significant foot process effacement | massive foot process effacement | increased podocyte uPAR expression | clear uPAR expression or deposit | not any uPAR | increased uPAR expression | not | readily observed | 
2 | CC(C)[C@@H]1NC(=O)[C@@H](Cc2ccccc2)NC(=O)[C@H](CC(=O)O)NC(=O)CNC(=O)[C@H](CCCN=C(N)N)NC1=O [cycloRGDfV] |  |  |  |  |  |  |  |  | prevented and reduced; also recorded: blocked
